From patent US20050153930A1, “Inhibition of a novel calcium injury current that forms in nuerons during injury prevents neuronal cell death” (Robert J. DeLorenzo, priority 2000, published 2005)
Entries after “also recorded” stand apart in the source; their conditions may differ. Counter-ions that a name gives are not always drawn. Like-named read-outs stand apart in the source and are kept apart here.

How the values were obtained:
Type in all cases: cell-based, rat
[1] = system: hippocampal neurons in culture; assay: Neuronal cell death / survival after excitotoxic glutamate, aging or chronic glutamate injury; conditions: for neuronal cell death produced by excitotoxic glutamate exposure: acute excitotoxic injury, treatment after injury
[2] = system: Injury Induced Calcium Channel (IICC); assay: Voltage clamp current/voltage relationship of the injury induced calcium current
[3] = system: hippocampal neurons in culture; assay: Extended neuronal depolarization (END), membrane potential recording after excitotoxic glutamate exposure
[4] = system: hippocampal neurons in culture; assay: Intracellular calcium measurement (Indo-1 / Fura-FF) after excitotoxic glutamate exposure; conditions: for prolonged elevation of intra cellular calcium / entry of extra cellular calcium following injury: after excitotoxic glutamate exposure
[5] = administered alone or in combination (without gadolinium) after the 10 minute glutamate exposure
[6] = applied in wash after 10 min 100 uM glutamate + 10 uM glycine
[7] = chronically administered during aging of neurons
[8] = chronic exposure during numerous minor chronic glutamate injuries
[9] = neurons in END after excitotoxic glutamate, voltage steps -90 to +60 mV

## C[C@@H]1C[C@H]2[C@@H]3CCC4=CC(=O)C=C[C@]4(C)C3=CC[C@]2(C)[C@H]1C(=O)CN1CCN(c2cc(N3CCCC3)nc(N3CCCC3)n2)CC1 [tirilazad mesylate]
[1]; [5]
  neuronal survival: had no significant effect on neuronal survival

## [Cd] [cadmium, reference compound]
[2]
  effect on IICC current (calcium injury current): None of these calcium channel blockers had any effect

## heparin
[1]; [5]
  neuronal survival: had no significant effect on neuronal survival

## [Cl][Gd]([Cl])[Cl] [gadolinium, gadolinium chloride]
[3]; [6]
  reversal of END: blocked by gadolinium; also recorded: effective in reversing END
[3]; applied in wash after 10 min 100 uM glutamate + 10 uM glycine, listed as Gadolinium
  reversal of END: as effective as zero calcium in reversing END; also recorded: able to reverse END as well as zero calcium
[3]; chronic administration, chronic injury model (multiple minor glutamate exposures)
  development of END: blocked calcium entry and accumulation and the development of END
[3]; [7]
  development of END: blocked calcium entry and the development of END
[3]; gadolinium in wash after excitotoxic glutamate, controls manifested END for greater than one hour
  time for END to return to baseline levels: 30 to 40 min
[4]
  prolonged elevation of intra cellular calcium / entry of extra cellular calcium following injury: able to block the extra cellular calcium entering from the bathing solution; also recorded: blocked by gadolinium
[4]; listed as Gadolinium
  prolonged elevation of intra cellular calcium / entry of extra cellular calcium following injury: effective in reversing the prolonged elevation of intra cellular calcium
[4]; chronic administration, chronic injury model
  calcium entry and accumulation: blocked calcium entry and accumulation
[4]; [7]
  calcium entry: blocked calcium entry
[4]; gadolinium in wash after excitotoxic glutamate, controls sustained at approximately 1-2 uM (indo-1)
  time for intra cellular calcium to return to baseline levels: 30 to 40 min
[2]; [8]
  formation of IICCs: blocked the formation of IICCs
[2]; given chronically to aging neurons
  development of IICCs: blocked the development of IICCs
[2]; [9]
  effect on IICC current (calcium injury current): inhibited the IICC current
[2]; neurons in END after excitotoxic glutamate, voltage steps -90 to +60 mV, listed as Gadolinium
  effect on IICC current (calcium injury current): effectively inhibited the IICC current
[2]; neurons in END after excitotoxic glutamate, voltage steps -90 to +60 mV, listed as gadolinium chloride
  effect on IICC current (calcium injury current): returns the neuron from END to baseline (control) conditions
[1]
  neuronal cell death produced by excitotoxic glutamate exposure: effective in reversing
[1]; listed as Gadolinium
  neuronal cell death produced by excitotoxic glutamate exposure: prevention of delayed neuronal cell death
[1]; administered chronically to neurons as they aged
  life span of neurons / cell death associated with aging: effective in significantly increasing the life span of the neurons; also recorded: prolonged the life of the neurons
[1]; [8]
  neuronal cell death from chronic injury: prevented the gradual production of neuronal cell death
[1]; excitotoxic injury in the presence of gadolinium
  neuronal cell death: did not die

## O=C1O[C@H]([C@@H](O)CO)C(O)=C1O [vitamin C, ascorbic acid]
[1]
  neuronal survival: had no significant effect on neuronal survival

## COc1ccc(CCCOC(Cn2ccnc2)c2ccc(OC)cc2)cc1 (stereo not shown) [SKF-96365, reference compound]
[3]; [6]
  reversal of END: had no effect on reversing END

## C[C@H]1C[C@@H]2[C@H]([C@@H](O)C[C@@]3(C)[C@H]2CC[C@]3(O)C(=O)CO)[C@@]2(C)C=CC(=O)C=C12 [methlyprednisolone]
[1]; [5]
  neuronal survival: had no significant effect on neuronal survival

## N[C@@H](CCCP(=O)(O)O)C(=O)O [APV, reference compound]
[2]; [9]
  effect on IICC current (calcium injury current): None of the glutamate receptor antagonists had any effect

## N#Cc1cc2[nH]c(=O)c(=O)[nH]c2cc1[N+](=O)[O-] [CNQX, reference compound]
[2]; [9]
  effect on IICC current (calcium injury current): None of the glutamate receptor antagonists had any effect

## CC(C)COCC(CN(Cc1ccccc1)c1ccccc1)N1CCCC1 (stereo not shown) [Bepridil, reference compound]
[3]; [6]
  reversal of END: did not block END; also recorded: had no effect in reversing END
[2]
  effect on IICC current (calcium injury current): had no effect on blocking the observed calcium injury current

## NS(=O)(=O)c1cccc2c1c([N+](=O)[O-])cc1nc(O)c(O)nc12 [NBQX, reference compound]
[2]; [9]
  effect on IICC current (calcium injury current): None of the glutamate receptor antagonists had any effect

## [Cl-].[Cl-].[Zn+2] [zinc chloride, reference compound]
[3]; 5 uM, after excitotoxic glutamate exposure
  reversal of END: did not prevent END
[3]; 5 uM, after excitotoxic glutamate exposure, listed as zinc
  reversal of END: had no effect in reversing END

## CCN(CC)Cc1nccn1-c1ccc([N+](=O)[O-])cc1C(=O)c1ccccc1Cl [nizofenone]
[1]; [5]
  neuronal survival: had no significant effect on neuronal survival

## CC1=C(/C=C/C(C)=C/C=C/C(C)=C/C=C/C=C(C)/C=C/C=C(C)/C=C/C2=C(C)CCCC2(C)C)C(C)(C)CCC1 [beta-carotene]
[1]; [5]
  neuronal survival: had no significant effect on neuronal survival

## O=C(O)CCCCC1CCSS1 (stereo not drawn) [alpha-lipoate, 1,2-dithiolane-3-pentanoic acid]
[1]; [5]
  neuronal survival: had no significant effect on neuronal survival

## Cc1c(C)c2c(c(C)c1O)CC[C@@](C)(CCC[C@H](C)CCC[C@H](C)CCCC(C)C)O2 [vitamin E, alpha-tocopherol]
[1]; [5]
  neuronal survival: had no significant effect on neuronal survival

## O=c1ccc2ccccc2o1 [coumarin]
[1]; [5]
  neuronal survival: had no significant effect on neuronal survival

## dilauryl ascorbate
[1]
  neuronal survival: had no significant effect on neuronal survival

## CCCCCCCCCCCCCCCC(=O)OC[C@H](O)[C@H]1OC(=O)C(O)=C1O [ascorbyl palmitate]
[1]; [5]
  neuronal survival: had no significant effect on neuronal survival
